Our source for the AC50, IC50 and EC50 values is ChEMBL document CHEMBL1201862, “PubChem BioAssay data set” (2004).

Calls of active or inactive are those of the source. Where only a bound is given, the exact number is not on record here.

The AC50 is the concentration at which the activity in the assay is half-maximal. As usually defined, the EC50 is the concentration needed to bring the measured effect to its halfway point.

Experiment [1] can be described thus: intracellular Trypanosoma cruzi inhibitors in host cells – cell-based, plate reader, cherry-pick samples, set 3, dose response (AID 651818).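 Further: compounds incubated with infected cells for about four days.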 In kind it is functional.
In experiment [2] the test system is INS1. In words: INS-1E survival protection against cytokine death – cell-based, luminescence, retest, dose response (AID 449756).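 Further: cell death triggered by IL-1 beta plus TNF-alpha plus IFN-gamma mixture; protective hits raise ATP signal compared with cytokine alone wells.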 To be noted: Rattus norvegicus. The format is functional.
Experiment [3] addresses Protein Wnt-3a (Mus musculus, UniProt P27467). As to the kind of experiment: antagonism of Wnt3a pathway luciferase reporter – Wnt-LIGHT cells, luminescence, selectivity assay for Gli-SUFU antagonist project, dose response (AID 651570).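 Further: Wnt-LIGHT reporter cells stimulated with conditioned medium from Wnt3a-producing cells.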 In kind it is functional. The note with it: read-out: IC50_Mean. In general terms: In a reporter assay the amount or activity of a reporter protein is the signal.

Experiment [4] addresses T1, Short transient receptor potential channel 4 (Mus musculus, UniProt Q9QUQ5).
T1 sequence (Q9QUQ5 whole entry): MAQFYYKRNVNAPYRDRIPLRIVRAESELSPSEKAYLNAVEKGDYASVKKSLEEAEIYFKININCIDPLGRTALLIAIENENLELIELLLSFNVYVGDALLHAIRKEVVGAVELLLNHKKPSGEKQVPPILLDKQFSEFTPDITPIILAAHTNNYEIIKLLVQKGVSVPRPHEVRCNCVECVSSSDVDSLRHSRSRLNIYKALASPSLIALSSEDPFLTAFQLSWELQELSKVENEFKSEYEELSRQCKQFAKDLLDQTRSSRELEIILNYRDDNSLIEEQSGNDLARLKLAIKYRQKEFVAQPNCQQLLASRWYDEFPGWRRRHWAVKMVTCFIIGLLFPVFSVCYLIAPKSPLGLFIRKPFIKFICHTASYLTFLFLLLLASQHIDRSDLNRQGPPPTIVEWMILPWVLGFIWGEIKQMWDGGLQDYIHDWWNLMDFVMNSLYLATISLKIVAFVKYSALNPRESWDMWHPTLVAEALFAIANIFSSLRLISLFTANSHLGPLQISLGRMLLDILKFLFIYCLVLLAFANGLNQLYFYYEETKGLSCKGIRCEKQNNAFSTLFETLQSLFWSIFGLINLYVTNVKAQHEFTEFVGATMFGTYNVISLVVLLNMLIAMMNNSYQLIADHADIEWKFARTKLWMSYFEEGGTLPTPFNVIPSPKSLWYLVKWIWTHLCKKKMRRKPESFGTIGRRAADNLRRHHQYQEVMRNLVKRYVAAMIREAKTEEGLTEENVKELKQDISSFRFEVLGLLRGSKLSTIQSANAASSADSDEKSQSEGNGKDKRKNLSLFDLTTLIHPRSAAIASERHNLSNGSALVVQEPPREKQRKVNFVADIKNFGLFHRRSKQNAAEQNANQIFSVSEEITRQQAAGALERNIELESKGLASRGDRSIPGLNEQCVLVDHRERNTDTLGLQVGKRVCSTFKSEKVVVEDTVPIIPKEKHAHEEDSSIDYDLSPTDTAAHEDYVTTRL
As to the kind of experiment: block of DAMGO-driven TRPC4 calcium entry – cell-based, HEK293 TRPC4/mu-opioid, Fluo-4 calcium, dose response (AID 434942).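 Further: potency of inhibitors blocking the TRPC4 calcium response.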 In kind it is functional.

For experiment [5], the system named is HEK293. As to the kind of experiment: inhibition of NOD1-driven NF-kB reporter – cell-based, luminescence, uHTS, primary screen (AID 1578). The format is functional. To be noted: Homo sapiens.
The test system of experiment [6] is HEK293. As to the kind of experiment: cells. In kind it is functional, cell-based. To be noted: Homo sapiens.
The test system of experiment [7] is HEK293. In words: cells. In kind it is functional, cell-based. To be noted: Homo sapiens. The source holds these as a separate data set.
Experiment [8] has as its system HEK293. In words: NOD2 signaling inhibitors in MDP-stimulated cells, cell-based, uHTS, luminescence (AID 2001). In kind it is functional. To be noted: Homo sapiens.
The target in experiment [9] is T2, Replicative DNA helicase DnaB (Mycobacterium tuberculosis, UniProt P9WMR3).
T2 sequence (P9WMR3 whole entry): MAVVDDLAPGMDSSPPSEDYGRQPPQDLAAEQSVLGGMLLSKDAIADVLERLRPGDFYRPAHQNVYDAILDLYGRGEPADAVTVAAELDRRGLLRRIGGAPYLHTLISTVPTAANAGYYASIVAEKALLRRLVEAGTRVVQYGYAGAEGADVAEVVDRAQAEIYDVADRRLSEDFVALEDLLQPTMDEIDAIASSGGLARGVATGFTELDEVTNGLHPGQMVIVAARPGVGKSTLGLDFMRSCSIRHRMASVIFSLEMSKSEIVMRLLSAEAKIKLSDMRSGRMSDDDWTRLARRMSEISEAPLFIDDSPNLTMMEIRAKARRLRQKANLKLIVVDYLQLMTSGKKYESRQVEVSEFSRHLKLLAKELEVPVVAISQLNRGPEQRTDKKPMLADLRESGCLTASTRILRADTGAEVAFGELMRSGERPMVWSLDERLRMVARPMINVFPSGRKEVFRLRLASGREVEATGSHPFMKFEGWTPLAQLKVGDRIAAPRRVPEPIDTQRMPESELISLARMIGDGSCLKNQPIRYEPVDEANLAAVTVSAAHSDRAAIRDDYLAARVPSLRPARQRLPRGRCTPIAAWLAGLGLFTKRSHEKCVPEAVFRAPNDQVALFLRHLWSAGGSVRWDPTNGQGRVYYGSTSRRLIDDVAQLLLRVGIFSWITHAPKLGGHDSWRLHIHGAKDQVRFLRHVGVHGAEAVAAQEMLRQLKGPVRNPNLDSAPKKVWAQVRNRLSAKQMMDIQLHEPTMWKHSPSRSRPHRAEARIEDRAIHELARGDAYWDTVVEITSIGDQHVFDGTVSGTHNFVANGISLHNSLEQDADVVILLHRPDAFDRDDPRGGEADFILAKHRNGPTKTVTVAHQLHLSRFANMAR
In words: DnaB intein splicing inhibitors, dose response, biochemical, cell-free fluorescence (AID 449749). The format is functional.

For experiment [10], the target named is T3, Protein RecA (Mycobacterium tuberculosis, UniProt P9WHJ3).
T3 sequence (P9WHJ3 whole entry): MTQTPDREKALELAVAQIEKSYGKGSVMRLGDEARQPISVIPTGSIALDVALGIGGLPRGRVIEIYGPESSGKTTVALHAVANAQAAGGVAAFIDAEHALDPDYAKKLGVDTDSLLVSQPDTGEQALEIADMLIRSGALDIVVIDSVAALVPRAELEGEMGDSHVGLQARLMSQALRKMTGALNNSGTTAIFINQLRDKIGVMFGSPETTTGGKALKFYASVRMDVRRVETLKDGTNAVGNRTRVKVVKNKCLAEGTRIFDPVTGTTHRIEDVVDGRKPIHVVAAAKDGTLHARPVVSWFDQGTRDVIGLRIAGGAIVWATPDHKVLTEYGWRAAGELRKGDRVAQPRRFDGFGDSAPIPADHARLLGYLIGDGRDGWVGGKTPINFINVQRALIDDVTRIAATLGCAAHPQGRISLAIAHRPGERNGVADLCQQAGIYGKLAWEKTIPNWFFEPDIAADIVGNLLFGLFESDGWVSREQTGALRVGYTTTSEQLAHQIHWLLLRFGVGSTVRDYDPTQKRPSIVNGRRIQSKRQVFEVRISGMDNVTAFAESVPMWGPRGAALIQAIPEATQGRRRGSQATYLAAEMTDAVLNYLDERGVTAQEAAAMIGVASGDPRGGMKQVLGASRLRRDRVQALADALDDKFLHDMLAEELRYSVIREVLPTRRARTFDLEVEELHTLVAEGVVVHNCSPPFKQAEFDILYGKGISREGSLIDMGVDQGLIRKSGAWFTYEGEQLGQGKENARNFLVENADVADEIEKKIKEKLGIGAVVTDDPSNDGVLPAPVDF
As to the kind of experiment: Fluorescence Cell-Free Homogeneous Dose Retest to Identify Inhibitors of RecA-Intein Splicing Activity. [Related pubchem assays (depositor defined):AID2097, AID2223, AID489010, AID492950]. The format is functional.

The target in experiment [11] is Cytochrome P450 3A4 (Homo sapiens, UniProt P08684). To be noted: Potency.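 Further: confirmatory qHTS run detecting inhibitors and substrates of CYP3A4.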
Experiment [12] in a line: reduction of Shn3 3'UTR-driven luciferase in osteoblasts – cell-based, Clone20 osteoblasts, firefly luciferase, cherry-picked, dose response (AID 624132).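 Further: firefly luciferase luminescence from reporter carrying the Shn3 3'UTR in osteoblasts.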 In kind it is functional.
The nature of experiment [13]: non-specific 3'UTR reporter inhibition in Clone20-Shn3RL – cell-based, Renilla luciferase, cherry-picked, counter-screen for Shn3 inhibitor project, dose response (AID 624133). The format is functional.
Experiment [14] concerns BJ. In words: BJ-TERT fibroblast viability loss – cell-based, RAS-independent, luminescence, dose response (AID 1933). The format is functional. To be noted: Homo sapiens.
For experiment [15], the system named is BJ. In words: cells. The format is functional, cell-based. The note with it: Homo sapiens.
For experiment [16], the system named is BJ. As to the kind of experiment: BJ-TERT-LT-ST fibroblast viability loss – cell-based, RAS-independent, luminescence, dose response (AID 1935).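 Further: BJ fibroblasts immortalized with TERT plus LT and ST oncogenes.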 The format is functional. The note with it: Homo sapiens.
Experiment [17] can be described thus: DRD fibroblast viability loss – cell-based, non-viral oncogenic, luminescence, dose response (AID 1934). The format is functional. The note with it: Homo sapiens.
Experiment [18] in a line: Luminescence Cell-Based Dose Retest to Confirm Inhibitors of Cancer Stem Cells. [Related pubchem assays (depositor defined):AID2717, AID2721]. In kind it is functional. To be noted: Homo sapiens.
Experiment [19] in a line: HEK-293T viability loss after treatment – luminescence, T-cell screen hits, cytotoxicity control for TCR NF-kB inhibitor project, dose response (AID 489026).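 Further: cells exposed to compound about 14 hours before the viability readout.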 The format is functional, cell-based.

Sequence of Protein Wnt-3a (P27467 whole entry): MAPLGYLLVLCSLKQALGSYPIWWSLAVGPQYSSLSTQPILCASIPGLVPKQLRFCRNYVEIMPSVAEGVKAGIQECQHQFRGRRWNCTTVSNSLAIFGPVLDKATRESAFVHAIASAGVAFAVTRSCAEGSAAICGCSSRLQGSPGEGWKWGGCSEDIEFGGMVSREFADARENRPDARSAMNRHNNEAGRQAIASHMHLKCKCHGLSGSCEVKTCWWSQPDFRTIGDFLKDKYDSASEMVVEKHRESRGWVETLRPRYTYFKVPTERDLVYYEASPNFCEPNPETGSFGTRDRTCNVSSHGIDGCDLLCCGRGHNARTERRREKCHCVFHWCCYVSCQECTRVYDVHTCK
Sequence of Cytochrome P450 3A4 (P08684 whole entry): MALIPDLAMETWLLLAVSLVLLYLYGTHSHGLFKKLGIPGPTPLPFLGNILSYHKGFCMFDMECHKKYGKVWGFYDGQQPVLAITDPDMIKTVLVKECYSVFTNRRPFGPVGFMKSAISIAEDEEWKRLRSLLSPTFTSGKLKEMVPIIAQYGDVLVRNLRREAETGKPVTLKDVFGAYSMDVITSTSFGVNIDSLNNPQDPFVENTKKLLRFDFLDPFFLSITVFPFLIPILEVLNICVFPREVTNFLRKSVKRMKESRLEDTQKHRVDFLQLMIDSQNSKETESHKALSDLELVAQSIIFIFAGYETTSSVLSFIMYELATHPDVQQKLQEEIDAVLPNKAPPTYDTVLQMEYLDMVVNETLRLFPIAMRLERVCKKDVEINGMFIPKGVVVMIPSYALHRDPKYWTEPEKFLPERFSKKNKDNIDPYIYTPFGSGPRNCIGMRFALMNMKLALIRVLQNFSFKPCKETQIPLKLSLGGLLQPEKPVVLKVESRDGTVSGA

On to `C[C@H](CO)N1C[C@H](C)[C@H](CN(C)Cc2ccc(C(F)(F)F)cc2)Oc2ccc(NC(=O)Nc3ccc(C(F)(F)F)cc3)cc2CC1=O`, for which the AC50 in experiment [1] is 2.66 µM (active).
With `COCCNc1nc2c(c(=O)n(C)c(=O)n2C)n1Cc1cccc(C(F)(F)F)c1`, the AC50 in experiment [2] was 6.6 µM (active). For the same compound, in [3], the IC50 was 5.24 µM (active).
`O=C(c1ccc(Cl)cc1)C1CCCN(C2CCSCC2)C1` (centres undefined): the 50% effective concentration (EC50) in [4] is 0.531 µM (active).
On the same count and under the same terms, then `NC(=O)c1nsc(C(=O)N(Cc2ccccc2F)C(C(=O)NCC2CCCO2)c2ccc(F)cc2)c1N` (centres undefined), with 0.473 µM (active).
On to `C/C(=N\Nc1ccc(Cl)nn1)c1ccccc1O`, for which the IC50 in [3] was 50 µM (inactive).
For `O=C(C(Cl)Cl)N1c2ccccc2OCC1c1ccccc1` (centres undefined), the figures for the EC50 in [5] and in experiment [10] were 13.8 µM (active) and 1.25 µM (active), respectively. In addition, the figures for the IC50 in experiment [6], in experiment [7] and in [8] were 16.9 µM (active), > 20 µM (inactive) and > 20 µM (inactive), respectively. The values for the AC50 in experiment [9] and in experiment [2] were 10 µM (active) and 8.54 µM (active), respectively.
For the compound `CC(Sc1n[nH]c2c3ccccc3nc-2n1)C(=O)N(C)C1CCCCC1` (centres undefined), the half-maximal effective concentration (EC50) in [5] is 4.74 µM (active). Further, the IC50 in experiment [6] was 6.41 µM (active); in experiment [7] it was 12.9 µM (active); in experiment [8], 6.67 µM (active). In experiment [2], the concentration at half-maximal activity (AC50) is 16.1 µM (active).
`Nc1nc(/C(=C/CC(=O)O)C(=O)NC2C(=O)N3C(C(=O)O)=CCSC23)cs1` (centres undefined): the AC50 in experiment [11] was 31.6 µM (inconclusive).
Regarding `Cc1cccc(CCN2C(N(C)C)=NC[C@@H]2CC(C)C)c1`, the AC50 in experiment [12] is 1.45 µM (active); in [13], 8.04 µM (active). For the same compound, the IC50 in experiment [3] was 9.13 µM (active).
For `CCCC(=O)Nc1nc2ccc(NC(=O)c3c(F)c(F)c(OC)c(F)c3F)cc2s1`, the EC50 in [14] is 4.47 µM (active); in experiment [15], > 150 µM (not active); in [16], 77.5 µM (inconclusive); in experiment [17], 2.2 µM (active). In addition, the AC50 in experiment [18] is 0.367 µM (active). Also, the IC50 in experiment [19] was > 80 µM (inactive).
`Cc1nc(C2CCC3C4CCC5=CC(=O)CC[C@]5(C)C4CC[C@]23C)cs1` (some centres undefined): the half-maximal effective concentration (EC50) in [5] is 2.24 µM (active). The IC50 was 3.42 µM (active) in experiment [6], 9.14 µM (active) in experiment [7] and 3.56 µM (active) in [8]. Also, the concentration at half-maximal activity (AC50) in experiment [18] is 6.32 µM (active).
As for `COC(=O)CC1C(C)(C)C(OC(C)=O)C2CC3=C4CC(=O)OC(c5ccoc5)[C@]4(C)CCC3[C@@]1(C)C2=O` (some centres undefined), the concentration at half-maximal activity (AC50) in experiment [11] was 1.58 µM (inconclusive).
